From US10562914B2, “Imidazoles as histone demethylase inhibitors” (Istituto Europeo di Oncologia S.r.l., priority 2016, dated 2020)
Counter-ions that a name gives are not always drawn.

Columns and labels:
[1] = target: T1, human recombinant KDM1A/CoREST protein (Homo sapiens, UniProt O60341); test: Assay of enzyme inhibition of KDM1A (LSD1), TR-FRET; assay type: biochemical; settings: 0.25 nM KDM1A/CoREST, 50 nM H3K4 monomethylated peptide, 20 min at RT
T1 construct: made in house; host or cells: E. coli
Protocol: 2.1 Assay of Enzyme Inhibition of KDM1A (LSD1)
The intensity of the light emission is proportional to the level of biotinylated reaction product. The complex of human recombinant KDM1A/CoREST protein was produced in E. coli as separate proteins and co-purified as previously described.
Demethylase reaction was started by the addition of 50 nM histone H3K4 monomethylated.
The resulting mixture was incubated in the dark for 1 h at RT. Then, TR-FRET signal was read by a fluorimeter (Infinite® F200, Tecan, Männedorf, Swirzerland) (Excitation 320 nm, Emission 665 nm and 620 nm, delay time 50 μs, window time 100 μs).
The inhibitor concentrations ranged from 0.025 to 500 μM (serial 1:3 dilutions). The IC50 was calculated using GraphPad Software.

[2] = tested on: Human leukemia MV4-11 cells; test: Cell growth, CellTiter-Fluor viability assay, MV4-11; assay type: cell-based; settings: 48 h incubation, read-out: IC50 against human leukemia MV4-11 cells
Description: (§1) CellTiter-Flor® (Promega) is as a nonlytic, single-reagent-addition fluorescence assay that measures the relative number of living cells in a culture population after experimental manipulation. The CellTiter-Fluor™ Cell Viability Assay measures the conserved and constitutive protease activity within live cells and therefore acts as a marker for cell viability.
(§2) Human leukemia MV4-11 cells, (obtained from the Deutsche Sammlung von Mikroorganismen und Zellkulturen, ACC 102) or NB4 cells, (obtained from the Deutsche Sammlung von Mikroorganismen und Zellkulturen) in exponential growth, were incubated for 48 h with different concentrations of the inhibitors. After 48 h a volume of CellTiter-Fluor® Reagent equal to one fifth of volume of cell culture medium was added. The content was mixed and incubates for at least 90 min at 37° C. degree to obtain a stable signal. The fluorescence was recorded using an excitation wavelength of 360 nm and an emission at 535 nm. The IC50 was calculated using GraphPad Software.

human leukemia NB4 cells = test: Cell growth, CellTiter-Fluor viability assay, NB4; assay type: cell-based; settings: NB-4, 48 h incubation, read-out: IC50 against human leukemia NB4 cells
Description: as §1, §2

| SMILES | IC50 [1] | IC50 (human leukemia NB4 cells) | IC50 [2] |
| --- | --- | --- | --- |
| CCc1[nH]c(-c2cc3sccc3n2C)nc1-c1ccccc1 [Example 9, 5-(5-ethyl-4-phenyl-1H-imidazol-2-yl)-4-methyl-thieno[3,2-b]pyrrole] | < 1 µM | – | – |
| CC(C)c1[nH]c(-c2cc3sccc3n2C)nc1-c1ccccc1 [Example 10, 5-(5-isopropyl-4-phenyl-1H-imidazol-2-yl)-4-methyl-thieno[3,2-b]pyrrole] | < 1 µM | – | – |
| CCn1c(-c2nc(C3CCC3)c[nH]2)cc2sccc21 [Example 12, 5-(4-cyclobutyl-1H-imidazol-2-yl)-4-ethyl-thieno[3,2-b]pyrrole] | < 1 µM | – | – |
| CCc1cn(CCOc2ccc(OC3CCNCC3)cc2)c(-c2cc3sccc3n2C)n1 [Example 20, 5-[4-ethyl-1-[2-[4-(4-piperidyloxy)phenoxy]ethyl]imidazol-2-yl]-4-methyl-thieno[3,2-b]pyrrole hydrochloride] | – | < 20 µM | < 10 µM |
| CCc1cn(CCOc2ccc(OC3CCCNCC3)cc2)c(-c2cc3sccc3n2C)n1 (stereo not shown) [Example 25, 5-[1-[2-[4-(azepan-4-yloxy)phenoxy]ethyl]-4-ethyl-imidazol-2-yl]-4-methyl-thieno[3,2-b]pyrrole hydrochloride] | – | < 20 µM | < 10 µM |
| CCc1cn(CCCc2ccc(OC3CCNCC3)cc2)c(-c2cc3sccc3n2C)n1 [Example 27, 5-[4-ethyl-1-[3-[4-(4-piperidyloxy)phenyl]propyl]imidazol-2-yl]-4-methyl-thieno[3,2-b]pyrrole hydrochloride] | – | < 20 µM | < 10 µM |
| Cn1c(-c2nc(C3CCC3)cn2CCOc2ccc(OC3CCNCC3)cc2)cc2sccc21 [Example 29, 5-[4-cyclobutyl-1-[2-[4-(4-piperidyloxy)phenoxy]ethyl]imidazol-2-yl]-4-methyl-thieno[3,2-b]pyrrole hydrochloride] | – | < 20 µM | < 10 µM |
| CCc1cn(CCCc2ccc(OCC3CCNCC3)cc2)c(-c2cc3sccc3n2C)n1 [Example 42, 5-[4-ethyl-1-[3-[4-(4-piperidylmethoxy)phenyl]propyl]imidazol-2-yl]-4-methyl-thieno[3,2-b]pyrrole hydrochloride] | – | < 10 µM | – |
| CCc1cn(CCCc2ccc(OC3CCCNCC3)cc2)c(-c2cc3sccc3n2C)n1 (stereo not shown) [Example 44, 5-[1-[3-[4-(azepan-4-yloxy)phenyl]propyl]-4-ethyl-imidazol-2-yl]-4-methyl-thieno[3,2-b]pyrrole hydrochloride] | – | < 10 µM | – |
| Cn1c(-c2nc(C3CCC3)cn2CCCc2ccc(OC3CCNCC3)cc2)cc2sccc21 [Example 49, 5-[4-cyclobutyl-1-[3-[4-(4-piperidyloxy)phenyl]propyl]imidazol-2-yl]-4-methyl-thieno[3,2-b]pyrrole hydrochloride] | – | < 10 µM | – |
| Cn1c(-c2ncc(C3CCC3)n2CCCc2ccc(OC3CCNCC3)cc2)cc2sccc21 [Example 50, 5-[5-cyclobutyl-1-[3-[4-(4-piperidyloxy)phenyl]propyl]imidazol-2-yl]-4-methyl-thieno[3,2-b]pyrrole] | < 0.1 µM | < 10 µM | – |
| Cn1c(-c2nc(-c3ccccc3)cn2CCCc2ccc(OC3CCNCC3)cc2)cc2sccc21 [Example 51, 4-methyl-5-[4-phenyl-1-[3-[4-(4-piperidyloxy)phenyl]propyl]imidazol-2-yl]thieno[3,2-b]pyrrole hydrochloride] | < 0.1 µM | – | – |
| CCc1cn(CCCc2ccc(OCC3CCNCC3)c(OCC3CCNCC3)c2)c(-c2cc3sccc3n2C)n1 [Example 52, 5-[1-[3-[3,4-bis(4-piperidylmethoxy)phenyl]propyl]-4-ethyl-imidazol-2-yl]-4-methyl-thieno[3,2-b]pyrrole dihydrochloride] | < 0.1 µM | – | – |
| CCCc1cnc(-c2cc3sccc3n2C)n1CCOc1ccc(OC2CCNCC2)cc1 [Example 54, 4-methyl-5-[1-[2-[4-(4-piperidyloxy)phenoxy]ethyl]-5-propyl-imidazol-2-yl]thieno[3,2-b]pyrrole] | < 0.1 µM | – | – |
| CCc1cnc(-c2cc3sccc3n2C)n1CCCc1ccc(OCC2CCNCC2)c(OCC2CCNCC2)c1 [Example 57, 5-[1-[3-[3,4-bis(4-piperidylmethoxy)phenyl]propyl]-5-ethyl-imidazol-2-yl]-4-methyl-thieno[3,2-b]pyrrole dihydrochloride] | < 0.1 µM | < 10 µM | – |
| CCc1cn(CCc2ccc(OC3CCNCC3)cc2)c(-c2cc3sccc3n2C)n1 [Example 58, 5-[4-ethyl-1-[2-[4-(4-piperidyloxy)phenyl]ethyl]imidazol-2-yl]-4-methyl-thieno[3,2-b]pyrrole] | < 0.1 µM | – | – |
| Cn1c(-c2ncc(C3CCC3)n2CCCc2ccc(OCC3CCNC3)cc2)cc2sccc21 (stereo not shown) [Example 60, 5-[5-cyclobutyl-1-[3-[4-(pyrrolidin-3-ylmethoxy)phenyl]propyl]imidazol-2-yl]-4-methyl-thieno[3,2-b]pyrrole] | < 0.1 µM | – | – |
| Cn1c(-c2ncc(C3CCC3)n2CCCc2ccc(OC3CCCNCC3)cc2)cc2sccc21 (stereo not shown) [Example 62, 5-[1-[3-[4-(azepan-4-yloxy)phenyl]propyl]-5-cyclobutyl-imidazol-2-yl]-4-methyl-thieno[3,2-b]pyrrole hydrochloride] | < 0.1 µM | – | – |

Second part, led by results:

| IC50 [1] | IC50 (human leukemia NB4 cells) | SMILES | IC50 [2] |
| --- | --- | --- | --- |
| < 0.1 µM | < 20 µM | CCc1cn(CCOc2cccc(OC3CCNCC3)c2)c(-c2cc3sccc3n2C)n1 [Example 18, 5-[4-ethyl-1-[2-[3-(4-piperidyloxy)phenoxy]ethyl]imidazol-2-yl]-4-methyl-thieno[3,2-b]pyrrole hydrochloride] | < 10 µM |
| < 0.1 µM | – | CCc1cn(CCOc2cccc(OC3CCCNCC3)c2)c(-c2cc3sccc3n2C)n1 (stereo not shown) [Example 34, 5-[1-[2-[3-(azepan-4-yloxy)phenoxy]ethyl]-4-ethyl-imidazol-2-yl]-4-methyl-thieno[3,2-b]pyrrole hydrochloride] | – |
| < 0.1 µM | – | CCc1cnc(-c2cc3sccc3n2C)n1CCOc1cccc(OC2CCCNCC2)c1 (stereo not shown) [Example 35, 5-[1-[2-[3-(azepan-4-yloxy)phenoxy]ethyl]-5-ethyl-imidazol-2-yl]-4-methyl-thieno[3,2-b]pyrrole hydrochloride] | – |
| < 0.1 µM | – | Cn1c(-c2ncc(C3CCC3)n2CCOc2ccc(OC3CCCNCC3)cc2)cc2sccc21 (stereo not shown) [Example 37, 5-[1-[2-[4-(azepan-4-yloxy)phenoxy]ethyl]-5-cyclobutyl-imidazol-2-yl]-4-methyl-thieno[3,2-b]pyrrole] | – |
| < 0.1 µM | < 10 µM | CCc1cn(CCOc2ccc(OC3CCNCC3)cc2)c(-c2cc3ccsc3n2C)n1 [Example 39, 5-[4-ethyl-1-[2-[4-(4-piperidyloxy)phenoxy]ethyl]imidazol-2-yl]-6-methyl-thieno[2,3-b]pyrrole] | – |
| < 0.1 µM | < 10 µM | CCCc1nc(-c2cc3sccc3n2C)n(CCOc2ccc(OC3CCNCC3)cc2)c1-c1ccccc1 [Example 40, 4-methyl-5-[5-phenyl-1-[2-[4-(4-piperidyloxy)phenoxy]ethyl]-4-propyl-imidazol-2-yl]thieno[3,2-b]pyrrole hydrochloride] | – |
| < 0.1 µM | < 10 µM | CCCc1c(-c2ccccc2)nc(-c2cc3sccc3n2C)n1CCOc1ccc(OC2CCNCC2)cc1 [Example 41, 4-methyl-5-[4-phenyl-1-[2-[4-(4-piperidyloxy)phenoxy]ethyl]-5-propyl-imidazol-2-yl]thieno[3,2-b]pyrrole] | – |
| < 0.1 µM | < 10 µM | CCc1cnc(-c2cc3sccc3n2C)n1CCCc1ccc(OCC2CCNCC2)cc1 [Example 43, 5-[5-ethyl-1-[3-[4-(4-piperidylmethoxy)phenyl]propyl]imidazol-2-yl]-4-methyl-thieno[3,2-b]pyrrole] | – |
| < 0.1 µM | < 10 µM | CCc1cnc(-c2cc3sccc3n2C)n1CCCc1ccc(OC2CCCNCC2)cc1 (stereo not shown) [Example 45, 5-[1-[3-[4-(azepan-4-yloxy)phenyl]propyl]-5-ethyl-imidazol-2-yl]-4-methyl-thieno[3,2-b]pyrrole hydrochloride] | – |
| < 0.1 µM | < 10 µM | CCc1c(-c2ccccc2)nc(-c2cc3sccc3n2C)n1CCCc1ccc(OC2CCNCC2)cc1 [Example 46, 5-[5-ethyl-4-phenyl-1-[3-[4-(4-piperidyloxy)phenyl]propyl]imidazol-2-yl]-4-methyl-thieno[3,2-b]pyrrole hydrochloride] | – |
| < 0.1 µM | < 10 µM | CCc1nc(-c2cc3sccc3n2C)n(CCCc2ccc(OC3CCNCC3)cc2)c1-c1ccccc1 [Example 47, 5-[4-ethyl-5-phenyl-1-[3-[4-(4-piperidyloxy)phenyl]propyl]imidazol-2-yl]-4-methyl-thieno[3,2-b]pyrrole hydrochloride] | – |
| < 0.1 µM | < 10 µM | CC(C)c1nc(-c2cc3sccc3n2C)n(CCOc2ccc(OC3CCNCC3)cc2)c1-c1ccccc1 [Example 48, 5-[4-isopropyl-5-phenyl-1-[2-[4-(4-piperidyloxy)phenoxy]ethyl]imidazol-2-yl]-4-methyl-thieno[3,2-b]pyrrole] | – |
